Measured values reported in publication PMC9814779, “A triple farnesoid X receptor and peroxisome proliferator-activated receptor α/δ activator reverses hepatic fibrosis in diet-induced NASH in mice” (Communications Chemistry, 2020).
Where two headings read alike, the source gives them in different places.

Experiments:
Type in all cases: cell-based
Parameters in all cases: Emax: dose or concentration left out as unconfirmed
[1] = biological target: T1, human PPARα ligand-binding domain (Gal4 chimera) (Homo sapiens, UniProt Q07869); test: Gal4 hybrid reporter gene assay, PPARα
T1 construct: coding for the hinge region and LBD of the canonical isoform of the respective nuclear receptor; expressed in transfected cells; host or cells: HEK293T
T1 sequence (Q07869 239-466 limits assumed): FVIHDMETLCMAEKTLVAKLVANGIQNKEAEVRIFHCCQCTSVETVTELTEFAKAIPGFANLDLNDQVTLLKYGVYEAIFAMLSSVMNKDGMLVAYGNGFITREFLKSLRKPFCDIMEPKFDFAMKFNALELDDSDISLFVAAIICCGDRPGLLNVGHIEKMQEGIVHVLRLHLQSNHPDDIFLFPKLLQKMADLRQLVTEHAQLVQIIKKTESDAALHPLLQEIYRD

[2] = biological target: T2, human PPARδ ligand-binding domain (Gal4 chimera) (Homo sapiens, UniProt Q03181); test: Gal4 hybrid reporter gene assay, PPARδ
T2 construct: coding for the hinge region and LBD of the canonical isoform of the respective nuclear receptor; expressed in transfected cells; host or cells: HEK293T
T2 sequence (Q03181 211-439 limits assumed): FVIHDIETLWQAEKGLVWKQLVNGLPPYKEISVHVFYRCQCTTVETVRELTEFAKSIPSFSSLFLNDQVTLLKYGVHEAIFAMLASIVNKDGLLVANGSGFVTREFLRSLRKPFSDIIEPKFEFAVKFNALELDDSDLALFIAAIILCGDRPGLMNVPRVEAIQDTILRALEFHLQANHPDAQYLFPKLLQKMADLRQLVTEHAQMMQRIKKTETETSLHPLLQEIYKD

[3] = biological target: T3, human PPARγ ligand-binding domain (Gal4 chimera) (Homo sapiens, UniProt P37231); test: Gal4 hybrid reporter gene assay, PPARγ
T3 construct: coding for the hinge region and LBD of the canonical isoform of the respective nuclear receptor; expressed in transfected cells; host or cells: HEK293T
T3 sequence (P37231 238-503 limits assumed): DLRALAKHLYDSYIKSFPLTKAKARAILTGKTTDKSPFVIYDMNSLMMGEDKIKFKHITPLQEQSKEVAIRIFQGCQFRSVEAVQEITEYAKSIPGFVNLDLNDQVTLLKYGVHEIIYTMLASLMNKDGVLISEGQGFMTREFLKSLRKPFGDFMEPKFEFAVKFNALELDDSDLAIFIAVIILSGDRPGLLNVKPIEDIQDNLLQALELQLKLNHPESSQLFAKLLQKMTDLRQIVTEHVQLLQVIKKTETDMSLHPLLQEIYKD

[4] = biological target: T4, human FXR:retinoid X receptor (RXR) heterodimer (Homo sapiens, UniProt Q96RI1); test: Full-length FXR reporter gene assay (BSEP response element) in HeLa cells; details: for Emax: read-out: max. rel. act. FXR; for FXR max. rel. act.: Supplementary Table 1, relative to GW4064 at 3 µM
T4 construct: pcDNA3-hFXR[32] and pSG5-hRXR[33] served for receptor overexpression in the full-length FXR assay; expressed in transfected cells; host or cells: HeLa

[5] = EC50 [μM] PPARα, HEK293T, mean ± SEM, n = 3
[6] = EC50 [μM] PPARδ, HEK293T, mean ± SEM, n = 3
[7] = HeLa, mean ± SEM, n = 3, read-out: EC50 [μM] FXR
[8] = HEK293T, mean ± SEM, n = 3, read-out: EC50 [μM] PPARδ
[9] = HEK293T, mean ± SEM, n = 3, read-out: EC50 [μM] PPARγ
[10] = PPAR EC50 [M], Supplementary Table 1, chromene derivatives, mean ± SEM, n ≥ 2
[11] = Supplementary Table 1, chromene derivatives, mean ± SEM, n ≥ 2, read-out: PPAR EC50
[12] = Supplementary Table 1, chromene derivatives, mean ± SEM, n ≥ 2, read-out: FXR EC50

T4 sequence (P19793 whole entry): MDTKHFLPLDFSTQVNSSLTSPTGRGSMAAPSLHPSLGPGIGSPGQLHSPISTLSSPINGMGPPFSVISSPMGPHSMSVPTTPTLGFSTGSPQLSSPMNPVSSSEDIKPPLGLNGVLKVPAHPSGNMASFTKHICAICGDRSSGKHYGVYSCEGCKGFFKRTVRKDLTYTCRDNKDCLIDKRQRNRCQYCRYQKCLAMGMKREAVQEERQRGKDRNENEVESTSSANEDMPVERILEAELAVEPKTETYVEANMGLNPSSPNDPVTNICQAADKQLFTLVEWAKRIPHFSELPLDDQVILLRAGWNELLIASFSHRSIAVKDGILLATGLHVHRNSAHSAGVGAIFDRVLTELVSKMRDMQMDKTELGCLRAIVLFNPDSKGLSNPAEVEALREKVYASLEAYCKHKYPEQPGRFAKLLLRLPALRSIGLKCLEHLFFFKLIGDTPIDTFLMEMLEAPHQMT
T4 sequence (Q96RI1 whole entry): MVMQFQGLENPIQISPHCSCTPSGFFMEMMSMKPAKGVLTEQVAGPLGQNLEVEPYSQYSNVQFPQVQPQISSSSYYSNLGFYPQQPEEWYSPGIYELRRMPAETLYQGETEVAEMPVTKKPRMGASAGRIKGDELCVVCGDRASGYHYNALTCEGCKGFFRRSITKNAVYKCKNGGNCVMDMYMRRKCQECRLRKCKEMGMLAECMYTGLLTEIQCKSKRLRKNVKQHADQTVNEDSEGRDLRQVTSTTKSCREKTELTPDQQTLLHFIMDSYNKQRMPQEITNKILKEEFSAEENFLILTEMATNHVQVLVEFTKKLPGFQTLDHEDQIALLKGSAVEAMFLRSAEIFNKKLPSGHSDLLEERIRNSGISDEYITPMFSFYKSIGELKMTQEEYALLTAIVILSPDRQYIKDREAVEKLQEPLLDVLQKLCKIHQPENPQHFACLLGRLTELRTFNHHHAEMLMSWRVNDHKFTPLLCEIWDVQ

SMILES	EC50 [1, 5]	Emax ([1]; read-out: max. rel. act. PPARα)	EC50 [2, 6]	EC50 [3]	Emax ([3]; read-out: max. rel. act. PPARγ)	Emax ([4]; HeLa)	EC50 [4, 7]	Emax ([2]; read-out: max. rel. act. PPARδ)	further results
O=C(O)Cc1ccccc1NC(=O)c1ccccc1NC(=O)c1ccc2ccccc2c1 [compound 7]	1.4 ± 0.1 µM	33%	> 10 µM	1.7 ± 0.1 µM	17 ± 10%	31%	9.2 ± 0.2 µM	–	–
O=C(O)CCc1cccc(NC(=O)c2ccccc2NC(=O)c2ccc(-c3cocn3)cc2)c1 [compound 37]	20 ± 1 µM	36%	12 ± 1 µM	6 ± 1 µM	15%	41%	6.9 ± 0.3 µM	52%	–
O=C(O)CCc1cccc(NC(=O)c2ccccc2NC(=O)c2ccc(-c3ccco3)cc2)c1 [compound 31]	1.8 ± 0.3 µM	22%	0.2 ± 0.01 µM	2.2 ± 0.1 µM	9%	23%	5.4 ± 0.1 µM	43%	–
Cc1cccc(NC(=O)c2ccc3ccccc3c2)c1C(=O)Nc1cccc(CCC(=O)O)c1 [compound 19]	7.4 ± 0.4 µM	15%	6.3 ± 0.9 µM	11 ± 2 µM	2.5%	–	> 10 µM	20%	–
O=C(O)CCc1cccc(NC(=O)c2ccccc2NC(=O)c2ccc(-c3cnco3)cc2)c1 [compound 38]	> 30 µM	–	–	–	16%	53%	15 ± 4 µM	32%	EC50 [2, 8]: 12 ± 1 µM; EC50 [3, 9]: 5.3 ± 0.2 µM
O=C(O)CCc1cccc(NC(=O)c2cc(O)ccc2NC(=O)c2ccc3ccccc3c2)c1 [compound 26]	8.9 ± 0.8 µM	28%	10 ± 2 µM	13 ± 1 µM	9%	–	> 10 µM	24%	–
Cc1ccc(NC(=O)c2ccc3ccccc3c2)c(C(=O)Nc2cccc(CCC(=O)O)c2)c1 [compound 18]	0.8 ± 0.02 µM	25%	0.21 ± 0.01 µM	3.3 ± 0.1 µM	23%	–	> 10 µM	14%	–
O=C(O)CCc1cccc(NC(=O)c2ccccc2NC(=O)C2=Cc3cccc(Cl)c3OC2)c1 [S9]	–	–	–	–	–	–	–	–	EC50 [1, 10]: 2.3 ± 0.1 µM; Emax ([1]; read-out: PPAR max. rel. act.): 35 ± 1%; EC50 [2, 11]: 0.91 ± 0.36 µM; Emax ([2]; read-out: PPAR max. rel. act.): 16 ± 2%; EC50 [3, 11]: 2.4 ± 0.2 µM; Emax ([3]; read-out: PPAR max. rel. act.): 7.6 ± 0.2%; EC50 [4, 12]: > 10 µM
O=C(O)CCc1cccc(NC(=O)c2ccccc2NC(=O)C2=Cc3cc(F)ccc3OC2)c1 [S5, 3-(3-[2-{6-Fluoro-2H-chromene-3-carboxamido}benzamido]phenyl)propanoic acid]	–	–	–	–	–	–	–	–	EC50 [1, 10]: 1.8 ± 0.6 µM; Emax ([1]; read-out: PPAR max. rel. act.): 20 ± 1%; EC50 [2, 11]: 2.6 ± 0.8 µM; Emax ([2]; read-out: PPAR max. rel. act.): 20 ± 3%; EC50 [3, 11]: 4.6 ± 0.8 µM; Emax ([3]; read-out: PPAR max. rel. act.): 17 ± 1%; EC50 [4, 12]: > 10 µM
Cc1cccc2c1OCC(C(=O)Nc1ccccc1C(=O)Nc1cccc(CCC(=O)O)c1)=C2 [S8]	–	–	–	–	–	–	–	–	EC50 [1, 10]: 3.5 ± 0.2 µM; Emax ([1]; read-out: PPAR max. rel. act.): 29 ± 1%; EC50 [2, 11]: 1.2 ± 0.4 µM; Emax ([2]; read-out: PPAR max. rel. act.): 18 ± 2%; EC50 [3, 11]: 3.1 ± 0.2 µM; Emax ([3]; read-out: PPAR max. rel. act.): 9.3 ± 0.5%; EC50 [4, 12]: > 10 µM
O=C(O)CCc1cccc(NC(=O)c2ccccc2NC(=O)C2=Cc3cccc(O)c3OC2)c1 [S11]	–	–	–	–	–	–	–	–	EC50 [1, 10]: > 30 µM; EC50 [2, 11]: > 30 µM; EC50 [3, 11]: 7.9 ± 1.2 µM; Emax ([3]; read-out: PPAR max. rel. act.): 6.3 ± 0.5%; EC50 [4, 12]: > 10 µM
O=C(O)CCc1cccc(NC(=O)c2cc(Cl)ccc2NC(=O)c2ccc3ccccc3c2)c1 [compound 25]	0.9 ± 0.2 µM	42%	0.28 ± 0.03 µM	6 ± 1 µM	26%	12%	2.6 ± 0.4 µM	17%	–
O=C(O)CCc1cccc(NC(=O)c2ccccc2NC(=O)c2ccc(-c3ccccc3)cc2)c1 [compound 30]	> 30 µM	–	–	–	16 ± 10%	33%	1.3 ± 0.2 µM	38%	EC50 [2, 8]: 2.5 ± 0.5 µM; EC50 [3, 9]: 1.6 ± 0.2 µM
O=C(O)CCc1cccc(NC(=O)c2ccccc2NC(=O)c2ccc(-c3cccs3)cc2)c1 [compound 33]	1.5 ± 0.1 µM	27%	0.64 ± 0.06 µM	1.4 ± 0.2 µM	11%	21%	1.7 ± 0.4 µM	35%	–
O=C(O)CCc1cccc(NC(=O)c2ccccc2NC(=O)c2ccc(-c3ccsc3)cc2)c1 [compound 34]	1.7 ± 0.1 µM	32%	1.6 ± 0.3 µM	1.3 ± 0.2 µM	17%	18%	0.6 ± 0.1 µM	59%	–
O=C(O)CCc1cccc(NC(=O)c2ccc(O)cc2NC(=O)c2ccc3ccccc3c2)c1 [compound 21]	5.3 ± 0.5 µM	54%	2.4 ± 0.1 µM	2.3 ± 0.3 µM	20%	16%	4.5 ± 0.1 µM	34%	–
O=C(O)CCc1cccc(NC(=O)c2ccccc2NC(=O)c2ccc(-c3ccon3)cc2)c1 [compound 35]	8 ± 0.4 µM	11%	5.6 ± 0.4 µM	5.8 ± 0.8 µM	30%	32%	6.8 ± 0.6 µM	29%	–
O=C(O)CCc1cccc(NC(=O)c2ccc(OC(F)(F)F)cc2NC(=O)c2ccc3ccccc3c2)c1 [compound 23]	1.1 ± 0.3 µM	31%	0.38 ± 0.06 µM	1 ± 0.2 µM	15%	12%	–	30%	EC50 [4]: 1.1 ± 0.1 µM
O=C(O)COc1cccc(NC(=O)c2ccccc2NC(=O)c2ccc3ccccc3c2)c1 [compound 13]	10 ± 1 µM	35%	10 ± 1 µM	19 ± 1 µM	11%	19%	5 ± 1 µM	43%	–
COc1ccc(C(=O)Nc2cccc(CCC(=O)O)c2)c(NC(=O)c2ccc3ccccc3c2)c1 [compound 22]	0.3 ± 0.04 µM	43%	0.06 ± 0.01 µM	1.3 ± 0.1 µM	27%	22%	11 ± 3 µM	32%	–
O=C(O)CCc1cccc(NC(=O)c2ccccc2NC(=O)c2ccc(-c3cnoc3)cc2)c1 [compound 36]	–	–	–	–	–	–	–	–	EC50 [μM] PPARα ([1]; HEK293T, mean ± SEM, n = 3): Unstable; EC50 [μM] PPARδ ([2]; HEK293T, mean ± SEM, n = 3): Unstable; EC50 [μM] PPARγ ([3]; HEK293T, mean ± SEM, n = 3): Unstable; EC50 [μM] FXR ([4]; HeLa, mean ± SEM, n = 3): Unstable
COc1ccc(C(=O)Nc2cccc(NCC(=O)O)c2)c(NC(=O)c2ccc(-c3ccoc3)cc2)c1 [compound 40, (3-[2-{4-(3-Furyl)benzamido}-4-methoxybenzamido]phenyl)glycine]	> 30 µM	–	–	–	9%	43%	0.29 ± 0.01 µM	54%	EC50 [2, 8]: 1.6 ± 0.1 µM; EC50 [3, 9]: 7.7 ± 0.5 µM
O=C(O)CNc1cccc(NC(=O)c2ccccc2NC(=O)c2ccc3ccccc3c2)c1 [compound 14]	> 30 µM	–	–	–	7.7%	31%	1.3 ± 0.1 µM	83%	EC50 [2, 8]: 3.5 ± 0.2 µM; EC50 [3, 9]: 5.7 ± 0.1 µM
O=C(O)CCc1cccc(NC(=O)c2ccccc2NC(=O)C2=Cc3ccccc3OC2)c1 [S1, 3-(3-[2-{2H-Chromene-3-carboxamido}benzamido]phenyl)propanoic acid]	–	–	–	–	–	–	–	–	EC50 [1, 10]: 5.2 ± 0.8 µM; Emax ([1]; read-out: PPAR max. rel. act.): 26 ± 3%; EC50 [2, 11]: 1.2 ± 0.1 µM; Emax ([2]; read-out: PPAR max. rel. act.): 26 ± 1%; EC50 [3, 11]: 7.7 ± 0.6 µM; Emax ([3]; read-out: PPAR max. rel. act.): 6.6 ± 0.2%; EC50 [4, 12]: 4.1 ± 0.8 µM; FXR max. rel. act. ([4]; n ≥ 2): 14 ± 1%
Cc1cccc2c1C=C(C(=O)Nc1ccccc1C(=O)Nc1cccc(CCC(=O)O)c1)CO2 [S3, 3-(3-[2-{5-Methyl-2H-chromene-3-carboxamido}benzamido]phenyl)propanoic acid]	–	–	–	–	–	–	–	–	EC50 [1, 10]: 0.83 ± 0.1 µM; Emax ([1]; read-out: PPAR max. rel. act.): 24 ± 1%; EC50 [2, 11]: 0.67 ± 0.04 µM; Emax ([2]; read-out: PPAR max. rel. act.): 27 ± 1%; EC50 [3, 11]: 8 ± 0.8 µM; Emax ([3]; read-out: PPAR max. rel. act.): 14 ± 1%; EC50 [4, 12]: 4.3 ± 0.3 µM; FXR max. rel. act. ([4]; n ≥ 2): 11 ± 1%
